Results from ChEMBL document CHEMBL4177681, “Protective effect of casuarinin against glutamate-induced apoptosis in HT22 cells through inhibition of oxidative stress-mediated MAPK phosphorylation” (Bioorg Med Chem Lett, 2017).
Active and inactive are the calls of the source. The rule behind the calls is not given here.

Assays:
HT-22 [1] = experiment: Neuroprotective activity against glutamate-induced cell death in mouse HT22 cells assessed as reduction in apoptotic cells at 50 uM after 10 to 12 hrs by Annexin V-alexa 488/propidium iodide staining based flow cytometry; type: functional
HT-22 [2] = experiment: Neuroprotective activity against glutamate-induced cell death in mouse HT22 cells assessed as increase in cell viability […] after 24 hrs by MTT assay; type: functional, cell-based
HT-22 [3] = experiment: Neuroprotective activity against glutamate-induced apoptosis in mouse HT22 cells assessed as apoptotic cells at 50 uM after 10 to 12 hrs by Annexin V-alexa 488/propidium iodide staining based flow cytometry (reference value: 57%); type: functional

SMILES: CC(=O)N[C@@H](CS)C(=O)O [ACETYLCYSTEINE]
- Activity (HT-22 [1]): Active
- Activity (HT-22 [2]): Active
- Activity (HT-22 [3]): 17%
